Earlier results on 1 molecule are cited in US20240199651A1, “ANTIBACTERIAL COMPOUNDS” (JANSSEN SCIENCES IRELAND UNLIMITED COMPANY, priority 2021, published 2024).

Values after ≈ are worked out from the molar mass of the structure shown.

The data set has as its system M. tuberculosis H37Rv. The following applies: M. tuberculosis H37Rv inside macrophages; cited from earlier work.

Regarding `CCc1nc2ccc(Cl)cn2c1C(=O)NCc1ccc(N2CCC(c3ccc(OC(F)(F)F)cc3)CC2)cc1` [Compound Q203, Q203], the MIC50 is 0.28 nM (≈ 0.156 ng/mL).
